SMILES strings stand for the structures.

For the test, the system named is alopecia mouse model. The test is described as follows: Hair growth promotion test in mice with alopecia (testosterone propionate model). In kind it is in vivo, C57BL/6 mice. Particulars: for growth of hairs and hair follicles compared to positive control drug group (in words): daily dose 1.5 mg, FIG. 3; for Number of hair follicles (X ± SD): day 18, per field (×100), HE staining, topical once daily for 16 days; for Hair length (X ± SD): day 18, topical once daily for 16 days, testosterone propionate alopecia mice. The procedure: The compounds of the present disclosure were tested for their hair growth-promoting effects on an alopecia mouse model.
C57BL/6 mice (purchased from SPF (Beijing) Biotechnology Co., Ltd., production license No.: SCXK (Beijing) 2019-0010), test compounds (prepared by the method of the present disclosure), rosin (Shanghai YuanYe Bio-Technology Co., Ltd., lot No. Y18M10C83144), liquid paraffin (Shanghai YuanYe Bio-Technology Co., Ltd., lot No.: Z22S11Y125555), chloral hydrate (Sinopharm Chemical Reagent Co., Ltd., lot No.: 20190823, a 2% chloral hydrate solution was prepared by using a 0.9% sodium chloride solution before use), testosterone propionate (Aladdin Reagent (Shanghai) Co., Ltd., lot No.: T101368, a 0.5% testosterone propionate solution was prepared by using an a soybean oil for injection before use), soybean oil for injection (Liaoning Shinsun Pharmaceutical Co., Ltd., lot No.: NMPA Approval No. H21024303), paraformaldehyde (Xilong Scientific Co., Ltd., lot No.: 1705022), a 0.9% sodium chloride solution (Jiangsu Huai'an Shuanghe Pharmaceutical Co., Ltd., lot No.: 210322-3C), an electronic balance (Beijing Sartorius Scientific Instruments Co., Ltd., model: BS224 S; GZX-9140MBE), and a digital display electric heating constant temperature air blast drying oven (Shanghai Boxun Medical Biological Instrument Corp.).
8-week-old male C57BL/6 mice were selected and injected with 2% chloral hydrate (400 mg/kg) for anesthesia. Equal amounts of rosin and paraffin were weighed out, heated, and mixed well. The mixture was applied on the front back of the mice in an area of about 2 cm×2.5 cm. After the mixture was cooled to be hard, the solidified hair was torn off by tweezers gently.
Qualified C57BL/6 mice (3 mice per group) were randomly assigned to a blank group, a model group, a positive control drug group (7.5% clascoterone group), and test groups (including 0.3% compound 8 group and 0.3% compound 7 group). Mice in the blank group were coated with 0.1 mL of normal saline in the depilated area every morning (1 time a day for 17 consecutive days); mice in the model group were coated with 0.1 mL of 0.5% testosterone propionate solution in the depilated area every morning (1 time a day, starting on the first day, for 17 consecutive days), and with 0.5 mL of the control solvent in the depilated area every afternoon (1 time a day, starting on the second day, for 16 consecutive days); mice in the positive control drug group were coated with 0.1 mL of 0.5% testosterone propionate solution in the depilated area every morning (1 time a day, starting on the first day, for 17 consecutive days), and with 0.5 mL of 7.5% clascoterone solution in the depilated area every afternoon (1 time a day, starting on the second day, for 16 consecutive days); and mice in the test groups were coated with 0.1 mL of 0.5% testosterone propionate solution in the depilated area every morning (1 time a day, starting on the first day, for 17 consecutive days), and with 0.5 mL of 0.3% test compound solution in the depilated area every afternoon (1 time a day, starting on the second day, for 16 consecutive days). The formula of the test compound solution was 0.3% test compound, 40% DMSO, 30% ethanol, and the balance of water; the formula of the control solvent was 40% DMSO, 30% ethanol, and the balance of water; the formula of the positive control drug group was 7.5% clascoterone, 40% DMSO, 30% ethanol, and the balance of water. The hair regrowth in the depilated area of the mice in each group was observed and photographed 16 days after the start of topical administration of the test compound solution.
On day 18 of the test, 5 new hairs were pulled out from the back depilated area of each mouse in each group, the lengths of the hairs were measured using a vernier caliper, and the lengths of the hairs of the mice in each group were counted. The skin of the depilated area of the mice in each group was cut out, and hematoxylin-eosin staining (HE staining) was performed. […]

As to `COc1ccc(/C=C/C(=O)C2(C(=O)/C=C/c3ccc(OC)c(OC)c3)CCC(=O)CC2)cc1OC` [Compound 7], the “growth of hairs and hair follicles compared to positive control drug group (in words)” value is listed as “better than that of the positive control drug group”; the “Number of hair follicles (X ± SD)” value is recorded as 95.600 ± 26.091; the “Hair length (X ± SD)” value is listed as 3.850 ± 0.009 mm.
In the same order, the values of `COc1ccc(/C=C/C(=O)C2(C(=O)/C=C/c3ccc(OC)c(OC)c3)CCC(F)(F)CC2)cc1OC` [Compound 8] are “better than that of the positive control drug group”, 116.733 ± 35.809 and 4.493 ± 0.024 mm.

These data come from US20250295609A1, “COMPOUND HAVING ANTI-ANDROGEN RECEPTOR ACTIVITY, AND USE THEREOF” (NANJING MINOVA PHARMACEUTICAL CO., LTD., priority 2022, published 2025).
